The values that follow come from patent US20250042886A1, “BIS(HETERO)ARYL THIOETHER OXADIAZINES AS FUNGICIDAL COMPOUNDS” (Bayer Aktiengesellschaft, priority 2021, published 2025).

Data set [1] can be described thus: Measurement of Log P values by HPLC on reversed phase columns (EEC directive 79/831 Annex V.A8). The class given is physicochemical. To be noted: method [a]: LC-UV, acidic range, 0.1% formic acid in water and acetonitrile.
Another data set has as its system Botrytis cinerea. The data set can be described thus: Botrytis cinerea in vitro cell test. To be noted: 144 h, 50 μMol/l of active ingredient, liquid culture, 6 days incubation, read-out: efficacy (inhibition of fungal growth). The class given is cell-based. The protocol:
B-9. Botrytis cinerea In Vitro Cell Test • Solvent: DMSO • Culture medium: 1 g KH2PO4 (VWR), 1 g K2HPO4 (VWR), 0.5 g Urea (VWR), 3 g KNO3 (Prolabo), 10 g saccharose (VWR), 0.5 g MgSO4, 7H2O (Sigma), 0.07 g CaCl2, 2H2O (Prolabo), 0.2 mg MnSO4, H2O (Sigma), 0.6 mg CuSO4, 5H2O (Sigma), 7.9 mg ZnSO4, 7H2O (Sigma), 0.1 mg H3BO3 (Merck), 0.14 mg NaMoO4, 2H2O (Sigma), 2 mg thiamine (Sigma), 0.1 mg biotine (VWR), 4 mg FeSO4, 7H2O (Sigma), QSP 1 liter • Inoculum: spore suspension Fungicides were solubilized in DMSO and the solution used to prepare the required range of concentrations. […] A spore suspension of B. cinerea was prepared and diluted to the desired spore density. Fungicides were evaluated for their ability to inhibit spore germination and mycelium growth in liquid culture assay. The compounds were added in the desired concentration to the culture medium with spores. After 6 days incubation, fungi-toxicity of compounds was determined by spectrometric measurement of mycelium growth. Inhibition of fungal growth was determined by comparing the absorbance values in wells containing the fungicides with the absorbance in control wells without fungicides.

Where [2] appears, read: Table 1, compounds of formula (I).
Where [3] appears, read: Table 3, intermediates of formula (27).

Consider `FC(F)(F)Oc1cccc(Sc2nnc(Cl)cc2C2=NOC[C@H](Cc3ccc(Cl)cc3Cl)N2)c1` (racemic) [Compound I-019], for which the chromatographic logP – broadly, a lipophilicity value derived from retention on a column – in data set [1] (setting [2]) amounted to 4.99.

`Cc1cc([C@H]2CON=C(c3c(Sc4cccc5ccccc45)nnc(C)c3C)N2)c(C)s1` (racemic) [Compound I-037]: in data set [1] (setting [2]), the chromatographic logP worked out at 3.67.

The compound `Cc1cc([C@@H]2CON=C(c3c(Sc4ccc(Cl)cc4Cl)nnc(C)c3C)N2)c(C)s1` (racemic) [Compound I-039] gave a chromatographic logP in data set [1] (setting [2]) of 3.87.

The compound `Cc1cc([C@H]2CON=C(c3c(Sc4ccncc4)nnc(C)c3C)N2)c(C)s1` (racemic) [Compound I-041] came in with a chromatographic logP in data set [1] (setting [2]) of 1.58.

Regarding `Cc1ccc(C)c(Sc2nnc(C)c(C)c2C2=NOC[C@H](c3ccc(C)s3)N2)c1` (racemic) [Compound I-043], in data set [1] (setting [2]), the chromatographic logP stood at 3.28.

In turn, `Cc1cc([C@@H]2CON=C(c3c(Sc4ccc(F)cc4F)nnc(C)c3C)N2)c(C)s1` (racemic) [Compound I-051] displayed a chromatographic logP in data set [1] (setting [2]) of 3.32.

Turning to `Cc1ccc(Sc2nnc3ccccc3c2C2=NOC[C@H](c3ccc(C)s3)N2)c(C)c1` (racemic) [Compound I-052], the chromatographic logP in data set [1] (setting [2]) turned out to be 3.83.

The compound `Cc1ccc([C@H]2CON=C(c3c(Sc4cc(Cl)ccc4Cl)nnc(C)c3C)N2)s1` (racemic) [Compound I-053] gave a chromatographic logP in data set [1] (setting [2]) of 3.4.

With `COc1ccc(Sc2nnc(C)c(C)c2C2=NOC[C@@H](c3ccc(C)s3)N2)cc1` (racemic) [Compound I-054], the chromatographic logP in data set [1] (setting [2]) is 2.76.

In data set [1] (setting [2]), `Cc1ccc(C)c(Sc2nnc(C)c(C)c2C2=NOC[C@H](c3cc(C)sc3C)N2)c1` (racemic) [Compound I-057] yielded a chromatographic logP of 3.66.

For `Cc1ccc([C@H]2CON=C(c3c(Sc4ccc(Cl)cc4Cl)nnc4ccccc34)N2)s1` (racemic) [Compound I-058], the chromatographic logP in data set [1] (setting [2]) was determined as 3.96.

Turning to `Cc1cc([C@H]2CON=C(c3c(Sc4cc(Cl)cc(Cl)c4)nnc(C)c3C)N2)c(C)s1` (racemic) [Compound I-061], the chromatographic logP in data set [1] (setting [2]) was determined as 4.04. Moreover, in the data set with Botrytis cinerea, the inhibition (as a rule, the drop in the measured response relative to a control, in per cent) at 50 µM was 70 to 79%.

The compound `Cc1ccc([C@@H]2CON=C(c3c(Sc4ccc(F)cc4)nnc(C)c3C)N2)s1` (racemic) [Compound I-063] displayed a chromatographic logP in data set [1] (setting [2]) of 2.82. The inhibition at 50 µM with Botrytis cinerea lay in the range of 70 to 79%.

`Cc1ccc([C@H]2CON=C(c3c(Sc4ccc(Cl)cc4)nnc(C)c3C)N2)s1` (racemic) [Compound I-064]: in data set [1] (setting [2]), the chromatographic logP worked out at 3.14.

`Cc1ccc([C@@H]2CON=C(c3c(Sc4ccc(C(C)(C)C)cc4)nnc(C)c3C)N2)s1` (racemic) [Compound I-065]: the chromatographic logP in data set [1] (setting [2]) stood at 3.95.

As for `Cc1ccc([C@H]2CON=C(c3c(Sc4ccc(Cl)cc4)nnc4ccccc34)N2)s1` (racemic) [Compound I-070], in data set [1] (setting [2]), the chromatographic logP was found to be 3.62.

Compound `Cc1ccc([C@H]2CON=C(c3c(Sc4ccncc4)nnc(C)c3C)N2)s1` (racemic) [Compound I-072] registered a chromatographic logP in data set [1] (setting [2]) of 1.3.

With `Cc1ccc([C@@H]2CON=C(c3c(Sc4ccc(F)cc4F)nnc(C)c3C)N2)s1` (racemic) [Compound I-073], the chromatographic logP in data set [1] (setting [2]) was 2.95. The inhibition at 50 µM in the data set with Botrytis cinerea was in the range of 80 to 89%.

`Cc1ccc([C@@H]2CON=C(c3c(Sc4ccc(Cl)cc4Cl)nnc(C)c3C)N2)s1` (racemic) [Compound I-075]: the chromatographic logP in data set [1] (setting [2]) amounted to 3.45.

For `Cc1cc([C@@H]2CON=C(c3c(Sc4ccc(C(F)(F)F)cc4)nnc(C)c3C)N2)c(C)s1` (racemic) [Compound I-076], in data set [1] (setting [2]), the chromatographic logP was 3.71.

Consider `COc1ccc(Sc2nnc3ccccc3c2C2=NOC[C@H](c3ccc(C)s3)N2)cc1` (racemic) [Compound I-077], for which, in data set [1] (setting [2]), the chromatographic logP turned out to be 3.22.

With `Cc1cc([C@@H]2CON=C(c3c(Sc4ccc(F)cc4)nnc(C)c3C)N2)c(C)s1` (racemic) [Compound I-081], the chromatographic logP in data set [1] (setting [2]) was determined as 3.18.

In data set [1] (setting [2]), `Cc1ccc([C@@H]2CON=C(c3c(Sc4ccc(C)c(Cl)c4)nnc(C)c3C)N2)s1` (racemic) [Compound I-082] returned a chromatographic logP of 3.47. For the same compound, the inhibition at 50 µM with Botrytis cinerea is 90 to 100%.

In data set [1] (setting [2]), `Cc1ccc(Sc2nnc(C)c(C)c2C2=NOC[C@@H](c3cc(C)sc3C)N2)c(C)c1` (racemic) [Compound I-087] gave a chromatographic logP of 3.68. The inhibition at 50 µM in the data set with Botrytis cinerea was 70 to 79%.

`Cc1ccc([C@H]2CON=C(c3c(Sc4cccc5ccccc45)nnc(C)c3C)N2)s1` (racemic) [Compound I-092] had a chromatographic logP in data set [1] (setting [2]) of 3.3.

Turning to `Cc1ccc([C@H]2CON=C(c3c(Sc4ccc(C)c(C)c4)nnc(C)c3C)N2)s1` (racemic) [Compound I-093], the chromatographic logP in data set [1] (setting [2]) is 3.26. Besides, in the data set on Botrytis cinerea, the inhibition at 50 µM is 90 to 100%.

In data set [1] (setting [2]), `Cc1ccc(Sc2nnc(C)c(C)c2C2=NOC[C@@H](c3ccc(C)s3)N2)cc1` (racemic) [Compound I-094] came in with a chromatographic logP of 3.01.

Compound `Cc1ccc([C@H]2CON=C(c3c(Sc4cc(Cl)ccc4Cl)nnc4ccccc34)N2)s1` (racemic) [Compound I-096] gave a chromatographic logP in data set [1] (setting [2]) of 3.88.

Compound `Cc1ccc([C@H]2CON=C(c3c(Sc4ccc5ccccc5c4)nnc4ccccc34)N2)s1` (racemic) [Compound I-098] registered a chromatographic logP in data set [1] (setting [2]) of 3.81. The chromatographic logP values of the last two compounds are within 0.2 log units of each other.

In data set [1] (setting [2]), `Cc1ccc(Sc2nnc3ccccc3c2C2=NOC[C@H](c3ccc(C)s3)N2)cc1` (racemic) [Compound I-101] registered a chromatographic logP of 3.49.

Regarding `Cc1ccc([C@H]2CON=C(c3c(Sc4ccccn4)nnc(C)c3C)N2)s1` (racemic) [Compound I-105], the chromatographic logP in data set [1] (setting [2]) worked out at 2.03.

Consider `Cc1cc([C@H]2CON=C(c3c(Sc4ccc(Cl)c(Cl)c4)nnc(C)c3C)N2)c(C)s1` (racemic) [Compound I-107], for which the chromatographic logP in data set [1] (setting [2]) is 3.92. For the same compound, the inhibition at 50 µM in the data set on Botrytis cinerea fell in the range of 80 to 89%.

Compound `Cc1ccc([C@H]2CON=C(c3c(Sc4ccc(OC(F)(F)F)cc4)nnc4ccccc34)N2)s1` (racemic) [Compound I-112] registered a chromatographic logP in data set [1] (setting [2]) of 3.96. For the same compound, the inhibition at 50 µM in the data set with Botrytis cinerea was in the range of 70 to 79%.

In turn, `Cc1ccc([C@H]2CON=C(c3c(Sc4ccc(C(C)(C)C)cc4)nnc4ccccc34)N2)s1` (racemic) [Compound I-113] had a chromatographic logP in data set [1] (setting [2]) of 4.43.

`Cc1ccc([C@H]2CON=C(c3c(Sc4ccccc4Cl)nnc(C)c3C)N2)s1` (racemic) [Compound I-114] returned a chromatographic logP in data set [1] (setting [2]) of 2.93. In addition, the inhibition at 50 µM with Botrytis cinerea lay in the range of 90 to 100%.

With `Cc1ccc([C@H]2CON=C(c3c(Sc4cc(Cl)cc(Cl)c4)nnc(C)c3C)N2)s1` (racemic) [Compound I-115], the chromatographic logP in data set [1] (setting [2]) is 3.68. In addition, in the data set with Botrytis cinerea, the inhibition at 50 µM lay in the range of 90 to 100%.

`Cc1ccc([C@@H]2CON=C(c3c(Sc4ccc(OC(F)(F)F)cc4)nnc(C)c3C)N2)s1` (racemic) [Compound I-116]: the chromatographic logP in data set [1] (setting [2]) was 3.52.

`Cc1cc([C@@H]2CON=C(c3c(Sc4ccc(OC(F)(F)F)cc4)nnc(C)c3C)N2)c(C)s1` (racemic) [Compound I-119] returned a chromatographic logP in data set [1] (setting [2]) of 3.87. Also, the inhibition at 50 µM in the data set with Botrytis cinerea fell in the range of 70 to 79%.

For the compound `Cc1ccc([C@H]2CON=C(c3c(Sc4cc(Cl)cc(Cl)c4)nnc4ccccc34)N2)s1` (racemic) [Compound I-120], the chromatographic logP in data set [1] (setting [2]) was 4.18.

For the compound `Cc1ccc(C)c(Sc2nnc3ccccc3c2C2=NOC[C@H](c3ccc(C)s3)N2)c1` (racemic) [Compound I-123], the chromatographic logP in data set [1] (setting [2]) was 3.8.

Compound `Cc1ccc([C@@H]2CON=C(c3c(Sc4ccc(C(F)(F)F)cc4)nnc(C)c3C)N2)s1` (racemic) [Compound I-128] came in with a chromatographic logP in data set [1] (setting [2]) of 3.36.

The compound `Cc1ccc([C@H]2CON=C(c3c(Sc4ccc(C(F)(F)F)cc4)nnc4ccccc34)N2)s1` (racemic) [Compound I-130] returned a chromatographic logP in data set [1] (setting [2]) of 3.81. For the same compound, the inhibition at 50 µM in the data set with Botrytis cinerea is 70 to 79%.

As to `Cc1cc([C@@H]2CON=C(c3c(Sc4ccc(C(C)(C)C)cc4)nnc(C)c3C)N2)c(C)s1` (racemic) [Compound I-132], the chromatographic logP in data set [1] (setting [2]) stood at 4.32.

On to `Cc1cc([C@H]2CON=C(c3c(Sc4ccc(Cl)cc4)nnc(C)c3C)N2)c(C)s1` (racemic) [Compound I-134], for which the chromatographic logP in data set [1] (setting [2]) amounted to 3.49.

With `Cc1ccc([C@H]2CON=C(c3c(Sc4ccc(Cl)c(Cl)c4)nnc(C)c3C)N2)s1` (racemic) [Compound I-137], in data set [1] (setting [2]), the chromatographic logP came out at 3.55. The inhibition at 50 µM with Botrytis cinerea lay within 90 to 100%.

Consider `Cc1ccc([C@@H]2CON=C(c3c(Sc4ccc5ccccc5c4)nnc(C)c3C)N2)s1` (racemic) [Compound I-138], for which, in data set [1] (setting [2]), the chromatographic logP is 3.33.

Turning to `C=CCON=C(N)c1c(Br)nnc(C)c1C` [Compound 27-01], in data set [1] (setting [3]), the chromatographic logP worked out at 1.28.

Take `C=CCON=C(N)c1c(Br)nnc2ccccc12` [Compound 27-02]: the chromatographic logP in data set [1] (setting [3]) stood at 1.81.

In data set [1] (Table 4, intermediates of formula (29)), `NC(=NO)c1c(Br)nnc2ccccc12` [Compound 29-02] came in with a chromatographic logP of 0.31.
